Source: US20160108027A1, “SUBSTITUTED BENZOXAZOLES” (BAYER PHARMA AKTIENGESELLSCHAFT, priority 2013, published 2016)

How the values were obtained:
[1] = target: T1, thrombin (Homo sapiens, UniProt P00734); test: Determination of the thrombin-inhibitory activity in plasma samples (ecarin-activated); format: biochemical; details: citrate plasma, ecarin activation, fluorogenic thrombin substrate; in some cases means of individual determinations
Experimental: To determine the inhibition of thrombin in plasma samples, plasma […] is activated by ecarin. Thrombin activity and/or its inhibition by potential inhibitors is/are then measured fluorenscently by addition of a substrate.
The substances to be tested are dissolved in various concentrations in dimethyl sulphoxide and diluted with water. In white 96-well flat-bottomed plates, 20 μl of substance dilution are mixed with 20 μl of ecarin solution (ecarin reagent, from Sigma E-0504, final concentration 20 mU per reaction) in Ca buffer (200 mM Hepes+560 mM sodium chloride+10 mM calcium chloride+0.4% PEG) or with 20 μl of Ca buffer (as unstimulated control). Furthermore, 20 μl of fluorogenic thrombin substrate (from Bachem 1-1120, final concentration 50 μmol/1) and 20 μl of citrate plasma (from Octapharma) are added, and the mixture is homogenized well. The plate is measured in a SpectraFluorplus Reader using a 360 nm excitation filter and a 465 nm emission filter every minute over 20 minutes. […] Representative activity data from this test are given in Table 2 below (in some cases as means of individual determinations): […]

[2] = target: T1, thrombin; test: Measurement of the thrombin inhibition in buffer; format: biochemical; details: human thrombin 0.06 nmol/l in Tris buffer pH 7.4, 22° C., substrate Boc-Asp(OBzl)-Pro-Arg-AMC; in some cases means of individual determinations
Experimental: To determine the thrombin inhibition of the substances listed above, a biochemical test system is constructed in which the conversion of a thrombin substrate is used for determining the enzymatic activity of human thrombin. Here, thrombin cleaves aminomethylcoumarin, which is measured fluorescently, from the peptic substrate. The determinations are carried out in microtitre plates.
Substances to be tested are dissolved in various concentrations in dimethyl sulphoxide and incubated for 15 min with human thrombin (0.06 nmol/l dissolved in 50 mmol/l of Tris buffer [C,C,C-tris(hydroxymethyl)aminomethane], 100 mmol/l of sodium chloride, 0.1% BSA [bovine serum albumin], pH 7.4) at 22° C. The substrate (5 μmol/l Boc-Asp(OBzl)-Pro-Arg-AMC from Bachem) is then added. After 30 min of incubation, the sample is excited at a wavelength of 360 nm and the emission is measured at 460 nm. The measured emissions of the test mixtures with test substance are compared to the control mixtures without test substance (only dimethyl sulphoxide instead of test substance in dimethyl sulphoxide) and IC50 values are calculated from the concentration/activity relationships. Representative activity data from this test are given in Table 1 below (in some cases as means of individual determinations): […]

SMILES | IC50 [1] | IC50 [2]
COc1cc(C(=O)N2CC(C)(C)OCC2CC(C)O)cc2nc(NCc3cc(Cl)ccn3)oc12 (single isomer, unassigned) [Example 62, (2-{[(4-Chloropyridin-2-yl)methyl]amino}-7-methoxy-1,3-benzoxazol-5-yl) [5-(2-hydroxypropyl)-2,2-dimethylmorpholin-4-yl]methanone] | 107 nM | 68 nM
COc1cc(C(=O)N2CC(C)OCC2C(C)(C)O)cc2nc(NCc3cc(Cl)ccn3)oc12 (single isomer, unassigned) [Example 36, (2-{[(4-Chloropyridin-2-yl)methyl]amino}-7-methoxy-1,3-benzoxazol-5-yl) [5-(2-hydroxypropan-2-yl)-2-methylmorpholin-4-yl]methanone] | 57 nM | 39 nM
COc1cc(C(=O)N2CC(C)OCC2CCO)cc2nc(NCc3cc(Cl)ccn3)oc12 (single isomer, unassigned) [Example 72, (2-{[(4-Chloropyridin-2-yl)methyl]amino}-7-methoxy-1,3-benzoxazol-5-yl) [5-(2-hydroxyethyl)-2-methylmorpholin-4-yl]methanone] | 37 nM | 29 nM
COc1cc(C(=O)N2C[C@H](OC3CC3)C[C@H]2C(=O)N2CC(F)(F)C2)cc2nc(NCc3cc(Cl)ccn3)oc12 [Example 10, (2-{[(4-Chloropyridin-2-yl)methyl]amino}-7-methoxy-1,3-benzoxazol-5-yl){(2S,4R)-4-(cyclopropyloxy)-2-[(3,3-difluoroazetidin-1-yl)carbonyl]pyrrolidin-1-yl}methanone] | 39 nM | 31 nM
COc1cc(C(=O)N2CC(C)OCC2C2CC(O)C2)cc2nc(NCc3cc(Cl)ccn3)oc12 (single isomer, unassigned) [Example 49, (2-{[(4-Chloropyridin-2-yl)methyl]amino}-7-methoxy-1,3-benzoxazol-5-yl) [5-(3-hydroxycyclobutyl)-2-methylmorpholin-4-yl]methanone] | 53 nM | 24 nM
COc1cc(C(=O)N2CC(C)OCC2C(C)(C)O)cc2nc(NCc3cc(Cl)ccn3)oc12 (single isomer, unassigned) [Example 37, (2-{[(4-Chloropyridin-2-yl)methyl]amino}-7-methoxy-1,3-benzoxazol-5-yl) [5-(2-hydroxypropan-2-yl)-2-methylmorpholin-4-yl]methanone] | 44 nM | 37 nM
COc1cc(C(=O)N2C[C@H](OC3CC3)C[C@H]2C(=O)N2CC(F)C2)cc2nc(NCc3cc(Cl)ccn3)oc12 [Example 11, (2-{[(4-Chloropyridin-2-yl)methyl]amino}-7-methoxy-1,3-benzoxazol-5-yl){(2S,4R)-4-(cyclopropyloxy)-2-[(3-fluoroazetidin-1-yl)carbonyl]pyrrolidin-1-yl}methanone] | 101 nM | 31 nM
COc1cc(C(=O)N2CCOC(C)(CC(C)O)C2)cc2nc(NCc3cc(Cl)ccn3)oc12 (single isomer, unassigned) [Example 61, (2-{[(4-Chloropyridin-2-yl)methyl]amino}-7-methoxy-1,3-benzoxazol-5-yl) [2-(2-hydroxypropyl)-2-methylmorpholin-4-yl]methanone] | 100 nM | 24 nM
COc1cc(C(=O)N2CC(C)(C)NC(=O)C2CC#N)cc2nc(NCc3cc(Cl)ccn3)oc12 (racemic) [Example 83, {1-[(2-{[(4-Chloropyridin-2-yl)methyl]amino}-7-methoxy-1,3-benzoxazol-5-yl)carbonyl]-5,5-dimethyl-3-oxopiperazin-2-yl}acetonitrile] | 62 nM | 36 nM
COc1cc(C(=O)N2CC(C)OCC23CC(O)C3)cc2nc(NCc3cc(Cl)ccn3)oc12 (single isomer, unassigned) [Example 53, (2-{[(4-Chloropyridin-2-yl)methyl]amino}-7-methoxy-1,3-benzoxazol-5-yl)(2-hydroxy-7-methyl-8-oxa-5-azaspiro[3.5]non-5-yl)methanone] | 49 nM | 36 nM

Now those with a lower IC50 [1], led by results:

IC50 [1] | IC50 [2] | SMILES
22 nM | 13 nM | COc1cc(C(=O)N2CC(C)(C)OCC2(C)CO)cc2nc(NCc3cc(Cl)ccn3)oc12 (racemic) [Example 38, (2-{[(4-Chloropyridin-2-yl)methyl]amino}-7-methoxy-1,3-benzoxazol-5-yl) [5-(hydroxymethyl)-2,2,5-trimethylmorpholin-4-yl]methanone]
33 nM | 18 nM | COc1cc(C(=O)N2CC(C)(C)OCC2(C)CO)cc2nc(NCc3cc(Cl)ccn3)oc12 (single isomer, unassigned) [Example 40, (2-{[(4-Chloropyridin-2-yl)methyl]amino}-7-methoxy-1,3-benzoxazol-5-yl) [5-(hydroxymethyl)-2,2,5-trimethylmorpholin-4-yl]methanone]
21 nM | 11 nM | COc1cc(C(=O)N2CC(C)(C)NC(=O)C2CC#N)cc2nc(NCc3cc(Cl)ccn3)oc12 (single isomer, unassigned) [Example 84, {1-[(2-{[(4-chloropyridin-2-yl)methyl]amino}-7-methoxy-1,3-benzoxazol-5-yl)carbonyl]-5,5-dimethyl-3-oxopiperazin-2-yl}acetonitrile]
23 nM | 14 nM | COc1cc(C(=O)N2CC(C)OCC2C2CC(O)C2)cc2nc(NCc3cc(Cl)ccn3)oc12 (centres unmarked) [Example 46, (2-{[(4-Chloropyridin-2-yl)methyl]amino}-7-methoxy-1,3-benzoxazol-5-yl) [5-(3-hydroxycyclobutyl)-2-methylmorpholin-4-yl]methanone]
34 nM | 27 nM | COc1cc(C(=O)N2CC(C)(C)OCC2CF)cc2nc(NCc3cc(Cl)ccn3)oc12 (racemic) [Example 42, (2-{[(4-Chloropyridin-2-yl)methyl]amino}-7-methoxy-1,3-benzoxazol-5-yl) [5-(fluoromethyl)-2,2-dimethylmorpholin-4-yl]methanone]
34 nM | 28 nM | COc1cc(C(=O)N2CC(C)OCC2C2CC(O)C2)cc2nc(NCc3cc(Cl)ccn3)oc12 (single isomer, unassigned) [Example 52, (2-{[(4-Chloropyridin-2-yl)methyl]amino}-7-methoxy-1,3-benzoxazol-5-yl) [5-(3-hydroxycyclobutyl)-2-methylmorpholin-4-yl]methanone]
20 nM | 11 nM | COc1cc(C(=O)N2CC(C)(C)OCC2CC(C)O)cc2nc(NCc3cc(Cl)ccn3)oc12 (single isomer, unassigned) [Example 63, (2-{[(4-Chloropyridin-2-yl)methyl]amino}-7-methoxy-1,3-benzoxazol-5-yl) [5-(2-hydroxypropyl)-2,2-dimethylmorpholin-4-yl]methanone]
34 nM | 11 nM | COCC1COC(C)(CCO)CN1C(=O)c1cc(OC)c2oc(NCc3cc(Cl)ccn3)nc2c1 (single isomer, unassigned) [Example 31]
21 nM | 6.4 nM | COc1cc(C(=O)N2C[C@H](OC3CC3)C[C@H]2CO)cc2nc(NC(C)c3cc(Cl)ccn3)oc12 (single isomer, unassigned) [Example 15]
28 nM | 12 nM | COc1cc(C(=O)N2CC(C)OCC2C2CC(O)C2)cc2nc(NCc3cc(Cl)ccn3)oc12 (single isomer, unassigned) [Example 50, (2-{[(4-Chloropyridin-2-yl)methyl]amino}-7-methoxy-1,3-benzoxazol-5-yl) [5-(3-hydroxycyclobutyl)-2-methylmorpholin-4-yl]methanone]
16 nM | 16 nM | CCC1C(=O)NC(C)CN1C(=O)c1cc(OC)c2oc(NCc3cc(Cl)ccn3)nc2c1 (single isomer, unassigned) [Example 80, 4-[(2-{[(4-Chloropyridin-2-yl)methyl]amino}-7-methoxy-1,3-benzoxazol-5-yl)carbonyl]-3-ethyl-6-methylpiperazin-2-one]
14 nM | 7.2 nM | COc1cc(C(=O)N2CC(C)(CCO)OCC2(C)C)cc2nc(NCc3cc(Cl)ccn3)oc12 (single isomer, unassigned) [Example 33, (2-{[(4-Chloropyridin-2-yl)methyl]amino}-7-methoxy-1,3-benzoxazol-5-yl) [2-(2-hydroxyethyl)-2,5,5-trimethylmorpholin-4-yl]methanone]
